Measurements: PubChem BioAssay AID488870 (Broad Institute, 2010)
Calls of active or inactive are those of the source.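 The calls were made as follows: active = a drop in nitrite signal whose fitted half-maximal concentration is at most ten times the top tested dose; inconclusive = flat fit with 30 to 70% inhibition, or poor curve fit; inactive = the rest.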

Experiment: suppression of NO production in INS-1E cells – cell-based, Griess absorbance, dry powder, set 3, dose response (AID 488870)
Settings: INS-1E cytokine-induced nitrite, Griess absorbance, 48 h; at 19.5 µM (top of the series)

| Structure (SMILES) | activity change, negative = inhibition |
| --- | --- |
| COc1ccc(S(=O)(=O)N(C)C[C@@H]2Oc3c(NC(=O)C4CCOCC4)cccc3C(=O)N([C@@H](C)CO)C[C@H]2C)cc1 | 5.9% (inactive) |
| C[C@@H]1CN([C@@H](C)CO)C(=O)c2cccc(NC(=O)Nc3cccc4ccccc34)c2O[C@H]1CN(C)S(=O)(=O)c1ccc2c(n1)N(C)CCO2 | -13.9% (inactive) |
| C[C@@H]1CN([C@@H](C)CO)C(=O)c2cccc(NC(=O)Nc3cccc4ccccc34)c2O[C@H]1CN(C)S(=O)(=O)c1ccc(Cl)cc1 | -22.9% (inactive) |
| C[C@@H]1CN([C@@H](C)CO)C(=O)c2cccc(NC(=O)Nc3cccc4ccccc34)c2O[C@H]1CN(C)S(=O)(=O)c1cccs1 | -14.1% (inactive) |
| COc1ccc(S(=O)(=O)N(C)C[C@@H]2Oc3c(NS(=O)(=O)c4cn(C)cn4)cccc3C(=O)N([C@@H](C)CO)C[C@H]2C)cc1 | 4.99% (inactive) |
| COc1ccc(S(=O)(=O)N(C)C[C@@H]2Oc3c(NC(=O)Nc4ccccc4)cccc3C(=O)N([C@@H](C)CO)C[C@H]2C)cc1 | -7.93% (inactive) |
| COc1ccc(S(=O)(=O)N(C)C[C@@H]2Oc3c(NS(=O)(=O)c4ccc(Cl)cc4)cccc3C(=O)N([C@@H](C)CO)C[C@H]2C)cc1 | -7.18% (inactive) |
| Cc1ccc(S(=O)(=O)N(C)C[C@@H]2Oc3c(NC(=O)Nc4ccccc4)cccc3C(=O)N([C@H](C)CO)C[C@H]2C)cc1 | 11.6% (inactive) |
| COc1ccc(S(=O)(=O)N(C)C[C@@H]2Oc3c(NC(=O)c4ccc(-c5nccs5)cc4)cccc3C(=O)N([C@@H](C)CO)C[C@H]2C)cc1 | -2.29% (inactive) |
| COc1ccc(S(=O)(=O)Nc2cccc3c2O[C@@H](CN(C)S(=O)(=O)c2ccc(OC)cc2)[C@H](C)CN([C@@H](C)CO)C3=O)cc1 | -10.4% (inactive) |
| COc1ccc(S(=O)(=O)N(C)C[C@@H]2Oc3c(NC(=O)C4CCCCC4)cccc3C(=O)N([C@@H](C)CO)C[C@H]2C)cc1 | -0.334% (inactive) |
| C[C@@H]1CN([C@@H](C)CO)C(=O)c2cccc(NC(=O)Nc3cccc4ccccc34)c2O[C@H]1CN(C)C(=O)Nc1ccc(F)cc1 | -13.6% (inactive) |
| COc1ccc(S(=O)(=O)N(C)C[C@@H]2Oc3c(NS(=O)(=O)c4ccc(C)cc4)cccc3C(=O)N([C@@H](C)CO)C[C@H]2C)cc1 | -5.68% (inactive) |
| COc1ccc(S(=O)(=O)N(C)C[C@@H]2Oc3c(NC(=O)Nc4c(C)noc4C)cccc3C(=O)N([C@@H](C)CO)C[C@H]2C)cc1 | -4.75% (inactive) |
| C[C@@H]1CN([C@@H](C)CO)C(=O)c2cccc(NC(=O)Nc3cccc4ccccc34)c2O[C@H]1CN(C)C(=O)Nc1ccccc1 | -16.1% (inactive) |
| Cc1ccc(S(=O)(=O)N(C)C[C@@H]2Oc3c(NC(=O)Nc4cccc5ccccc45)cccc3C(=O)N([C@H](C)CO)C[C@H]2C)cc1 | -10.1% (inactive) |
| COc1ccc(S(=O)(=O)N(C)C[C@@H]2Oc3c(NS(=O)(=O)c4ccc(F)cc4)cccc3C(=O)N([C@@H](C)CO)C[C@H]2C)cc1 | 9.8% (inactive) |
| C[C@@H]1CN([C@H](C)CO)C(=O)c2cccc(NC(=O)Nc3ccc(F)cc3)c2O[C@H]1CN(C)S(=O)(=O)c1ccc(Cl)cc1 | -5.33% (inactive) |
| C[C@@H]1CN([C@@H](C)CO)C(=O)c2cccc(NC(=O)Nc3cccc4ccccc34)c2O[C@H]1CN(C)S(=O)(=O)c1ccccc1 | -19.1% (inactive) |
| C[C@@H]1CN([C@@H](C)CO)C(=O)c2cccc(NC(=O)Nc3ccccc3)c2O[C@H]1CN(C)S(=O)(=O)c1ccc(F)cc1 | -6.44% (inactive) |

| Structure (SMILES) | activity change, negative = inhibition |
| --- | --- |
| C[C@@H]1CN([C@@H](C)CO)C(=O)c2cccc(NC(=O)Nc3ccccc3)c2O[C@H]1CN(C)S(=O)(=O)c1ccc(Cl)cc1 | -8% (inactive) |
| COc1ccc(S(=O)(=O)N(C)C[C@@H]2Oc3c(NC(=O)c4ccncc4)cccc3C(=O)N([C@@H](C)CO)C[C@H]2C)cc1 | -12.3% (inactive) |
| COc1ccc(NC(=O)Nc2cccc3c2O[C@@H](CN(C)S(=O)(=O)c2ccc(OC)cc2)[C@H](C)CN([C@@H](C)CO)C3=O)cc1 | -3.9% (inactive) |
| COc1ccc(S(=O)(=O)N(C)C[C@@H]2Oc3c(NC(=O)Nc4cccc5ccccc45)cccc3C(=O)N([C@@H](C)CO)C[C@H]2C)cc1OC | -18.5% (inactive) |
| COc1ccc(S(=O)(=O)N(C)C[C@@H]2Oc3c(NC(=O)Nc4ccc5c(c4)OCO5)cccc3C(=O)N([C@@H](C)CO)C[C@H]2C)cc1 | -8.76% (inactive) |
| COc1ccc(S(=O)(=O)N(C)C[C@@H]2Oc3c(NC(=O)c4cc(C)nn4C)cccc3C(=O)N([C@@H](C)CO)C[C@H]2C)cc1 | -2.17% (inactive) |
| COc1ccc(S(=O)(=O)N(C)C[C@@H]2Oc3c(NC(=O)Nc4cccc5ccccc45)cccc3C(=O)N([C@H](C)CO)C[C@@H]2C)cc1 | 3.88% (inactive) |
| C[C@@H]1CN([C@@H](C)CO)C(=O)c2cccc(NC(=O)Nc3cccc4ccccc34)c2O[C@H]1CN(C)CC1CC1 | -0.187% (inactive) |
| C[C@@H]1CN([C@H](C)CO)C(=O)c2cccc(NC(=O)Nc3ccccc3)c2O[C@H]1CN(C)S(=O)(=O)c1ccc(Cl)cc1 | 4.79% (inactive) |
| Cc1ccc(S(=O)(=O)N(C)C[C@@H]2Oc3c(NC(=O)Nc4ccccc4)cccc3C(=O)N([C@@H](C)CO)C[C@H]2C)cc1 | -10.1% (inactive) |
| COc1ccc(S(=O)(=O)N(C)C[C@@H]2Oc3c(NC(=O)Nc4ccccc4)cccc3C(=O)N([C@H](C)CO)C[C@H]2C)cc1 | -11% (inactive) |
| C[C@@H]1CN([C@@H](C)CO)C(=O)c2cccc(NS(=O)(=O)c3ccccc3)c2O[C@H]1CN(C)Cc1ccc(C(F)(F)F)cc1 | -12.5% (inactive) |
| COc1ccc(S(=O)(=O)N(C)C[C@@H]2Oc3c(NC(=O)Nc4ccc(F)cc4)cccc3C(=O)N([C@H](C)CO)C[C@H]2C)cc1 | 20.3% (inactive) |
| COc1ccc(S(=O)(=O)N(C)C[C@@H]2Oc3c(NC(=O)c4cnccn4)cccc3C(=O)N([C@@H](C)CO)C[C@H]2C)cc1 | -9.05% (inactive) |
| C[C@H]1CN([C@@H](C)CO)C(=O)c2cccc(NC(=O)NC3CCCCC3)c2O[C@@H]1CN(C)S(C)(=O)=O | 3.92% (inactive) |
| COc1ccc(S(=O)(=O)N(C)C[C@@H]2Oc3c(NC(=O)NC(C)C)cccc3C(=O)N([C@@H](C)CO)C[C@H]2C)cc1 | 7.35% (inactive) |
| COc1ccc(S(=O)(=O)N(C)C[C@H]2Oc3c(NC(=O)Nc4cccc5ccccc45)cccc3C(=O)N([C@@H](C)CO)C[C@@H]2C)cc1 | -9.04% (inactive) |
| COc1ccc(S(=O)(=O)N(C)C[C@@H]2Oc3c(NC(=O)Nc4ccc(F)cc4)cccc3C(=O)N([C@@H](C)CO)C[C@H]2C)cc1 | -7.65% (inactive) |
| C[C@@H]1CN([C@@H](C)CO)C(=O)c2cccc(NC(=O)Nc3cccc4ccccc34)c2O[C@H]1CN(C)S(=O)(=O)c1cn(C)cn1 | -10.7% (inactive) |
| COc1ccc(S(=O)(=O)N(C)C[C@@H]2Oc3c(NC(=O)Nc4cccc5ccccc45)cccc3C(=O)N(C(C)C)C[C@H]2C)cc1 | -11.1% (inactive) |
